ChEMBL document CHEMBL4425168, “Dehydrozingerone Inspired Styryl Hydrazine Thiazole Hybrids as Promising Class of Antimycobacterial Agents” (ACS Med Chem Lett, 2016)
≈ marks a conversion by molar mass, not a printed value.

How the values were obtained:
[1] = test system: Mycobacterium tuberculosis; experiment: Antitubercular activity against Mycobacterium tuberculosis H37Rv assessed as bacterial growth inhibition under aerobic conditions after 5 days by dual read-out fluorescence assay; format: functional, organism-based; conditions: 120 h
[2] = test system: Mycobacterium tuberculosis; experiment: Antitubercular activity against Mycobacterium tuberculosis H37Rv by radiometric assay; format: functional
[3] = test system: Mycobacterium tuberculosis; experiment: Antitubercular activity against Mycobacterium tuberculosis H37Rv INH-R2 ATCC 35822 after 5 days; format: functional, organism-based
[4] = test system: Mycobacterium tuberculosis; experiment: Antitubercular activity against Mycobacterium tuberculosis H37Rv RIF-R2 ATCC 35828 after 5 days; format: functional, organism-based; conditions: H37Rv RIF-R2 ATCC 35828, 120 h
[5] = test system: Mycobacterium avium; experiment: Antibacterial activity against Mycobacterium avium assessed as reduction in bacterial metabolic activity after 5 days by Alamar blue assay; format: functional; conditions: 120 h
[6] = test system: Mycobacterium tuberculosis; experiment: Antitubercular activity against oxygen-deprived Mycobacterium tuberculosis H37Rv assessed as bacterial growth inhibition preincubated for 10 days under anaerobic conditions followed by incubation under aerobic conditions for 28 hrs by LOR assay; format: functional, organism-based
[7] = test system: Mycobacterium tuberculosis; experiment: Bactericidal activity against replicating Mycobacterium tuberculosis H37Rv assessed as reduction in colony forming units incubated for 21 days; format: functional; conditions: 504 h
[8] = test system: THP-1; experiment: Cytotoxicity in differentiated human THP1 cells assessed as reduction in cell viability after 3 days by CellTiter-Glo assay; format: cell-based; conditions: THP-1, 72 h
[9] = test system: Mycobacterium tuberculosis; experiment: Antitubercular activity against oxygen-deprived Mycobacterium tuberculosis H37Rv assessed as bacterial growth inhibition incubated for 5 days under aerobic conditions by LOR assay; format: functional, organism-based; conditions: 120 h
[10] = test system: Mycobacterium tuberculosis; experiment: Antitubercular activity against Mycobacterium tuberculosis H37Rv expressing luxABCDE infected in differentiated human THP1 cells assessed as reduction in bacteria infected cells after 72 hrs by luminescence assay; format: functional, organism-based; conditions: THP-1, 72 h
[11] = test system: Mycobacteroides abscessus; experiment: Antibacterial activity against Mycobacterium abscessus assessed as bacterial growth inhibition after 3 days by MABA method; format: functional; conditions: 72 h
[12] = test system: Mycobacterium tuberculosis; experiment: Antitubercular activity against Mycobacterium tuberculosis H37Rv after 7 days by broth macrodilution assay; format: functional; conditions: 168 h
[13] = test system: Mycobacterium tuberculosis; experiment: Antitubercular activity against Mycobacterium tuberculosis H37Rv assessed as bacterial growth inhibition in aerobic conditions by dual read out fluorescence assay; format: functional
[14] = test system: Mycobacterium tuberculosis; experiment: Antitubercular activity against Mycobacterium tuberculosis H37Rv by microplate Alamar blue assay; format: functional
[15] = Mycobacterium tuberculosis, H37Rv INH-R2 ATCC 35822, 120 h

| Structure (SMILES) | MIC [1] [µM] | IC50 [3, 15] [µM] | IC90 [3, 15] [µM] | MIC [3, 15] [µM] | IC50 [4] [µM] | IC90 [4] [µM] | MIC [4] [µM] | also measured |
| --- | --- | --- | --- | --- | --- | --- | --- | --- |
| COc1ccc(/C=C/C(C)=N/Nc2nc(-c3ccc(Cl)cc3)cs2)cc1OC | 1.5 to 200 (≈ 0.621 to 82.8 µg/mL) | – | – | – | – | – | – | – |
| O=[N+]([O-])c1ccc2nc(-c3ccccc3-c3nnc(/C=C/c4ccccc4)o3)[nH]c2c1 | – | – | – | – | – | – | – | MIC [2]: 12.5 µg/mL (≈ 30.5 µM) |
| COc1ccc(/C=C/C(C)=N/Nc2nc(-c3ccc(C)cc3)cs2)cc1OC | 1.5 to 200 (≈ 0.59 to 78.7 µg/mL) | – | – | – | – | – | – | – |
| COc1ccc(/C=C/C(C)=N/Nc2nc(-c3cc(F)ccc3O)cs2)cc1OC | 1.5 to 200 (≈ 0.62 to 82.7 µg/mL) | – | – | – | – | – | – | – |
| NNC(=O)c1ccncc1 [ISONIAZID] | – | > 200 | > 200 | > 200 | 0.54 | 0.6 | 0.62 (≈ 0.085 µg/mL) | – |
| COc1ccc(/C=C/C(C)=N/Nc2nc(-c3ccc(N)cc3)cs2)cc1OC | 1.5 to 200 (≈ 0.592 to 78.9 µg/mL) | 0.38 | 1.7 | 1.5 (≈ 0.592 µg/mL) | 0.76 | 9.2 | 6.3 (≈ 2.49 µg/mL) | MIC [5]: 100 µM (≈ 39.5 µg/mL); IC50 [6]: 0.063 µM; MIC [6]: 46 µM (≈ 18.1 µg/mL); MBC [7]: 12 µM (≈ 4.73 µg/mL); IC50 [8]: 11 µM; IC50 [9]: 0.097 µM; MIC [9]: 0.28 µM (≈ 0.11 µg/mL); IC50 [10]: < 0.098 µM |
| COc1ccc(/C=C/C(C)=N/Nc2nc(-c3ccc([N+](=O)[O-])cc3)cs2)cc1OC | > 200 | – | – | – | – | – | – | – |
| COc1ccc(/C=C/C(C)=N/Nc2nc(-c3ccc(Cl)c(Cl)c3)cs2)cc1OC | > 200 | – | – | – | – | – | – | – |
| COc1ccc(/C=C/C(C)=N/Nc2nc(-c3ccc(Br)cc3)cs2)cc1OC | > 200 | – | – | – | – | – | – | – |
| COc1ccc(/C=C/C(C)=N/Nc2nc(-c3c(OC)cccc3OC)cs2)cc1OC | 28 (≈ 12.3 µg/mL) | 5.6 | > 25 | 19 (≈ 8.35 µg/mL) | 10 | > 25 | 41 (≈ 18 µg/mL) | MIC [5]: > 100 µM; MIC [11]: > 100 µM; IC50 [1]: 6.6 µM; IC50 [8]: 11 to 50 µM |
| COC(=O)c1nc(N)sc1Cc1ccccc1 | – | – | – | – | – | – | – | MIC [12]: 0.06 µg/mL (≈ 0.242 µM) |
| COc1ccc(-c2csc(N/N=C(C)/C=C/c3ccc(OC)c(OC)c3)n2)cc1 | 15 (≈ 6.14 µg/mL) | 8 | > 50 | 12 (≈ 4.91 µg/mL) | 8.7 | > 50 | 31 (≈ 12.7 µg/mL) | MIC [5]: > 200 µM; MIC [11]: > 200 µM; IC50 [1]: 8.4 µM; IC50 [8]: 11 to 50 µM |
| COc1ccc(/C=C/C(C)=N/Nc2nc(-c3ccccc3)cs2)cc1OC | 1.5 to 200 (≈ 0.569 to 75.9 µg/mL) | – | – | – | – | – | – | – |
| COc1ccc(-c2csc(N/N=C/c3ccc4c(c3)c3ccccc3n4C)n2)cc1OC | – | – | – | – | – | – | – | MIC [13]: 21 µM (≈ 9.29 µg/mL) |
| CC(=O)c1nc(/C=C/c2ccccc2)c2ncn(Cc3ccccc3)c2n1 | – | – | – | – | – | – | – | MIC [14]: 6.25 µM (≈ 2.22 µg/mL) |
| COc1ccc(O)c(-c2csc(N/N=C(C)/C=C/c3ccc(OC)c(OC)c3)n2)c1 | 88 (≈ 37.4 µg/mL) | – | – | – | – | – | – | IC50 [1]: 23 µM |
| CO[C@H]1/C=C/O[C@@]2(C)Oc3c(C)c(O)c4c(O)c(c(/C=N/N5CCN(C)CC5)c(O)c4c3C2=O)NC(=O)/C(C)=C\C=C\[C@H](C)[C@H](O)[C@@H](C)[C@@H](O)[C@@H](C)[C@H](OC(C)=O)[C@@H]1C [RIFAMPIN] | 1.5 to 200 (≈ 1.23 to 165 µg/mL) | 0.0047 | – | 0.0065 (≈ 0.00535 µg/mL) | > 50 | > 50 | > 50 | IC90 [3]: 0.012 µM; MIC [5]: 0.1 µM (≈ 0.0823 µg/mL) |
| COc1ccc(/C=C/C(C)=N/NC(N)=S)cc1OC | 1.5 to 200 (≈ 0.419 to 55.9 µg/mL) | 0.79 | 2.9 | 2.5 (≈ 0.698 µg/mL) | 1.2 | 5.9 | 4.8 (≈ 1.34 µg/mL) | MIC [5]: > 200 µM; IC50 [6]: 0.19 µM; MIC [6]: 29 µM (≈ 8.1 µg/mL); MBC [7]: 6 µM (≈ 1.68 µg/mL); MIC [11]: > 200 µM; IC50 [1]: 0.98 µM; IC50 [8]: 11 to 50 µM; IC50 [9]: 0.15 µM; MIC [9]: 0.5 µM (≈ 0.14 µg/mL); IC50 [10]: < 0.098 µM |
| COc1ccc(/C=C/C(C)=N/Nc2nc(-c3cccc(C(F)(F)F)c3)cs2)cc1OC | > 200 | – | – | – | – | – | – | – |
| COc1ccc(/C=C/C(C)=N/Nc2nc(-c3ccc(OC)c(OC)c3)cs2)cc1OC | 16 (≈ 7.03 µg/mL) | 7.1 | 12 | 13 (≈ 5.71 µg/mL) | 19 | > 200 | 46 (≈ 20.2 µg/mL) | MIC [5]: > 200 µM; MIC [11]: > 200 µM; IC50 [1]: 7.4 µM; IC50 [8]: 38 µM |
| COc1ccc(/C=C/C(C)=N/Nc2nc(-c3cc(Br)ccc3O)cs2)cc1OC | 1.5 to 200 (≈ 0.712 to 94.9 µg/mL) | – | – | – | – | – | – | – |
| COc1ccc(/C=C/C(C)=N/Nc2nc(-c3ccccc3O)cs2)cc1OC | 40 (≈ 15.8 µg/mL) | – | – | – | – | – | – | IC50 [1]: 24 µM |
| C[C@H]1COc2c(N3CCN(C)CC3)c(F)cc3c(=O)c(C(=O)O)cn1c23.C[C@H]1COc2c(N3CCN(C)CC3)c(F)cc3c(=O)c(C(=O)O)cn1c23.O [LEVOFLOXACIN] | – | 0.84 | 1.4 | 1.4 | 0.6 | 1.2 | 1.1 | – |
